Experimental findings from paper PMC5786472 (Cell, 2018) are described below.

Where no end group is shown, it is not given here.

Assay [1] relates to E. coli K-12 strain W3110. The format is cell-based, Escherichia coli.
Assay [2] deals with E. coli conferring New-Delhi metallo-beta-lactamase (NDM) resistance. Particulars: 10mM Tris (pH7.4) + 25mM NaCl, 20 hours, 37°C, at least 99.9% killing of inoculum; representative of three independent experiments.
Assay [3] relates to E. coli W3110, Acinetobacter baumannii (Ab 5075), Pseudomonas aeruginosa (PA14), NDM E. coli. As to conditions: 20 h.
The next assay has as its system E. coli. In words: SLAY screen of a defined library of five surface-displayed peptides. The format is cell-based, Escherichia coli.

For the compound `CC(C)C[C@H](NC(=O)[C@H](CCCNC(=N)N)NC(=O)CNC(=O)CNC(=O)[C@@H](N)CCCNC(=N)N)C(=O)N[C@H]1CSSC[C@@H](C(=O)N[C@H](C(=O)NCC(=O)N[C@@H](CCCNC(=N)N)C(N)=O)C(C)C)NC(=O)[C@H](C(C)C)NC(=O)[C@@H]2CSSC[C@H](NC(=O)[C@H](Cc3ccc(O)cc3)NC1=O)C(=O)N[C@@H](CCCNC(=N)N)C(=O)N[C@@H](CCCNC(=N)N)C(=O)N[C@@H](CCCNC(=N)N)C(=O)N[C@@H](Cc1ccccc1)C(=O)N2` [Protegrin 1], in assay [1], the “effect of surface-displayed peptide on growth” value (“effect” below) is “strong antimicrobial activity”.

Turning to DATPHAALFFTVKDHTAGDN [Peptide P15], the “MBC NDM E. coli” value in assay [2] is 64 µM. Same read-out and setting: in the case of LPLPSCSSHGGDADNTSQRN [Peptide P11] it was 32 µM.

For the compound RLVRILVSKRPVAIKPYFRL [Peptide P1], the “MBC over all bacteria tested” value in assay [3] is “less than 2 μM”. Turning to YPYDVPDYAAYPYDVPDYAA [Peptide 2xHA], the “effect” value in assay [1] is recorded as “grew similarly at all IPTG concentrations”. Besides, the log2 fold with E. coli is on record as −0.01. For dermaseptin, the “effect” value in assay [1] is recorded as “strong antimicrobial activity”.
